# Experimental data as given in patent US10618885B2, “Compounds that activate autophagy” (Macau University of Science and Technology, priority 2018, dated 2020).
# Where two headings read alike, the source gives them in different places.
# Columns and labels:
# Format in all cases: cell-based
# HeLa cancer cells = test: MTT cytotoxicity assay in HeLa cancer cells
# Protocol: All test compounds were dissolved in DMSO (Dimethyl sulfoxide) at final concentrations of 50 mmol/L and stored at −20° C. before use. Cytotoxicity was assessed using the 3-(4, 5-dimethylthiazol-2-yl)-2, 5-diphenyltetrazolium bromide (MTT) (5.0 mg/ml) assay. Briefly, 4×10^3 cells were seeded per well in 96-well plates before drug treatment. After overnight culture, the cells were then exposed to different concentrations of test compounds (0.039-100 μmol/L) for 72 hours. Cells without drug treatment were used as control. Subsequently, MTT (10 μL) was added to each well and incubated at 37° C. for 4 hours followed by the addition of 100 μL solubilization buffer (10% SDS (Sodium dodecyl sulfate) in 0.01 mol/L HCl) and overnight incubation. A570 nm was determined from each well on the next day. The percentage of cell viability was calculated using the following formula: Cell viability (%)=Atreated/Acontrol×100. Data were obtained from triplication independent experiments.
# FIG. 1 is a graph 100 showing cell viability of HeLa cells treated with dauricine, N-desmethyldauricine, and compounds 2a-4b. HeLa cancer cells in 96 well-plates were treated with 0 to 20 μM of dauricine (Dau), N-desmethyldauricine (NDau) and dauricine derivatives (2a-4b) for 72 hours. Cell cytotoxicity was then assessed using the 3-(4, 5-dimethylthiazol-2-yl)-2, 5-diphenyltetrazolium bromide (MTT) (5.0 mg/ml) assay. The IC50 values shown in FIG. 1 are mean values of three independent experiments.
# [1] = system: LC3 conversion (LC3-I to LC3-II) in HeLa cells; test: Western blot for autophagic marker LC3 conversion in HeLa cells; conditions: 24 hours, three concentrations, normalised to β-actin
# Protocol: After drug treatment, adherent and floating cells were lysed with RIPA lysis buffer. Protein concentrations were determined using the Bio-Rad protein assay (Bio-Rad Laboratories, Inc., Hercules, Calif., USA). The cell lysates of samples were subjected to electrophoresis on SDS polyacrylamide gels and transferred to Hybond enhanced chemiluminescence nitrocellulose membranes (Amersham Biosciences, Piscataway, N.J.), which were then blocked with 5% non-fat dry milk protein for 1 hour. Membranes were then incubated with the indicated primary antibodies overnight at 4° C. The binding of the antibody was visualized by peroxidase-coupled secondary antibody using the ECL (enhanced chemiluminescence) Western Blotting Detection Reagents (Invitrogen, Paisley, Scotland, UK). Band intensities were quantified by using the software ImageJ (NIH, Bethesda, Md., USA).
# The presence of the autophagy marker protein, LC3-II was determined in HeLa cells by western blot analysis. HeLa cancer cells were treated with dauricine (Dau) or compounds 2a-4b with three indicated concentrations for 24 hours. Cell lysates were analyzed by Western blot for LC3 conversion ([…]) and β-actin. The western blot was shown in FIGS. 4A, 4C, 4E, 4G, 4I, 4K, and 4M. LC3-II band intensities were quantified using densitometric analysis and normalised to β-actin. The results were shown in FIGS. 4B, 4D, 4F, 4H, 4J, 4L and 4N. Data are expressed as a fold change relative to the DMSO-treated negative control. Bars are representatives of three independent experiments. Error bars, SEM. *, P<0.05; **, P<0.01; ***, P<0.001.
# HeLa cells = test: Annexin V cell death analysis by flow cytometry, with or without wortmannin; conditions: 24 hours; for compound-mediated cell death on blocking of autophagy by wortmannin: 5 μM compound plus 1 μM wortmannin; for percentage of cell death: 5 μM compound, annexin V staining, without wortmannin
# Protocol: Apoptosis was detected by Annexin V staining kit (BD Biosciences, San Jose, Calif., USA). In brief, cells were exposed to the indicated concentrations of […] for 24 hours. Cells were then harvested and analyzed by flow cytometry using FITC-Annexin V and Propidium Iodide staining according to the manufacturer's instructions. Apoptotic cells were quantitatively counted by a flow cytometer (BD FACSAria III, San Jose, Calif., USA). Data acquisition and analysis were performed with CellQuest (BD Biosciences, San Jose, Calif., USA) from triple independent experiments.
# To investigate whether the autophagy induced by compounds 2a, 2b, 3a, and 4a contributes to cell death, Annexin V cell death analysis was conducted. HeLa cells treated with these compounds (5 μM) in the presence or absence of 1 μM of wortmannin for 24 hours were assayed by flow cytometry after annexin V staining. Bar charts of FIGS. 5C and 5E represent the quantitation of cell death (%).
# [2] = system: GFP-LC3 stable HeLa cells; test: Autophagy LC3 puncta detection in GFP-LC3 stable HeLa cells; conditions: 24 hours; for formation of GFP-LC3 puncta (fluorescence images): compared with untreated cells; for percentage of cells with GFP-LC3 puncta (dose dependence): three concentrations
# Protocol: The detection of LC3 autophagic puncta was conducted using GFP-LC3 stable HeLa cancer cells as described below. In brief, compounds-treated GFP-LC3-HeLa cells on cover slips were fixed with 4% paraformaldehyde (Sigma) for 20 min at room temperature and then rinsed with PBS (phosphate-buffered saline). The coverslips were then mounted with FLUORSAVE™ mounting media (Calbiochem, San Diego, Calif., USA) for fluorescence imaging and the localization of LC3 autophagosomes were captured under the API Delta Vision Live-cell Imaging System (Applied Precision Inc., GE Healthcare Company, Washington, USA). To quantify autophagy, guidelines were followed to monitor autophagy, the percentage of cells with punctuate LC3 immunofluorescence staining was calculated by counting the number of the cells showing the increased punctuate pattern of LC3 fluorescence (≥10 dots/cell) in immunofluorescence-positive cells over the total number of cells in the same field. A minimum of 1000 cells from randomly selected fields were scored.
# FIG. 2A-3H show identification of compounds 2a-4b with autophagic activities. GFP-LC3 puncta in compound-treated GFP-LC3-HeLa cells were detected. GFP-LC3 stable HeLa cells were treated with DMSO (−ve Ctrl) or the indicated concentrations of dauricine (Dau), N-desmethyldauricine (NDau) and dauricine derivatives (2a-4b) for 24 hours. Representative fluorescence images from the highest tested concentration of compound captured at 60× magnification were shown; scale bar, 15 μm. Bar charts represent the quantitation of autophagic cells. The percentages of autophagic cells were calculated as the number of cells with GFP-LC3 puncta (≥10 puncta/cell) divided by the total number of GFP-positive cells in the same field.
# [3] = HeLa cancer cells, 72 hours, MTT, mean of three independent experiments, read-out: IC50 (cytotoxicity)
compound,measurement,setting,value
COc1cc2c(cc1OC)C(Cc1ccc(Oc3cc(CC4c5cc(OC)c(OC)cc5CCN4C)ccc3OC(=O)N(c3ccccc3)c3ccccc3)cc1)N(C)CC2 (centres unmarked) [Compound 2a],IC50,HeLa cancer cells; [3],5.44 µM
same,conversion of LC3-I to LC3-II (fold change relative to DMSO control),[1],increased the conversion of LC3-I to LC3-II in a dose dependent manner
same,compound-mediated cell death on blocking of autophagy by wortmannin,HeLa cells,significantly inhibited
same,percentage of cell death,HeLa cells,markedly increased the percentage of cell death
COc1cc2c(cc1OC)C(Cc1ccc(Oc3cc(CC4c5cc(OC)c(OC)cc5CCN4C)ccc3OC(=O)N(C)c3ccccc3)cc1)N(C)CC2 (centres unmarked) [Compound 2b],IC50,HeLa cancer cells; [3],6.72 µM
same,conversion of LC3-I to LC3-II (fold change relative to DMSO control),[1],increased the conversion of LC3-I to LC3-II in a dose dependent manner
same,compound-mediated cell death on blocking of autophagy by wortmannin,HeLa cells,significantly inhibited
same,percentage of cell death,HeLa cells,markedly increased the percentage of cell death
COc1cc2c(cc1OC)C(Cc1ccc(Oc3cc(CC4c5cc(OC)c(OC)cc5CCN4C)ccc3OC(=O)N(C)C)cc1)N(C)CC2 (centres unmarked) [Compound 2c],conversion of LC3-I to LC3-II (fold change relative to DMSO control),[1],increased the conversion of LC3-I to LC3-II in a dose dependent manner
CCN(C)C(=O)Oc1ccc(CC2c3cc(OC)c(OC)cc3CCN2C)cc1Oc1ccc(CC2c3cc(OC)c(OC)cc3CCN2C)cc1 (centres unmarked) [Compound 2d],conversion of LC3-I to LC3-II (fold change relative to DMSO control),[1],increased the conversion of LC3-I to LC3-II in a dose dependent manner
CCN(CC)C(=O)Oc1ccc(CC2c3cc(OC)c(OC)cc3CCN2C)cc1Oc1ccc(CC2c3cc(OC)c(OC)cc3CCN2C)cc1 (centres unmarked) [Compound 2e],conversion of LC3-I to LC3-II (fold change relative to DMSO control),[1],increased the conversion of LC3-I to LC3-II in a dose dependent manner
COc1cc2c(cc1OC)C(Cc1ccc(Oc3cc(CC4c5cc(OC)c(OC)cc5CCN4C)ccc3OC(=O)N(C)OC)cc1)N(C)CC2 (centres unmarked) [Compound 2f],conversion of LC3-I to LC3-II (fold change relative to DMSO control),[1],increased the conversion of LC3-I to LC3-II in a dose dependent manner
COc1cc2c(cc1OC)C(Cc1ccc(Oc3cc(CC4c5cc(OC)c(OC)cc5CCN4C)ccc3OC(=O)N3CCOCC3)cc1)N(C)CC2 (centres unmarked) [Compound 2g],conversion of LC3-I to LC3-II (fold change relative to DMSO control),[1],increased the conversion of LC3-I to LC3-II in a dose dependent manner
COc1cc2c(cc1OC)C(Cc1ccc(Oc3cc(CC4c5cc(OC)c(OC)cc5CCN4C)ccc3OC(=O)c3ccccc3)cc1)N(C)CC2 (centres unmarked) [Compound 3a],IC50,HeLa cancer cells; [3],6.44 µM
same,conversion of LC3-I to LC3-II (fold change relative to DMSO control),[1],increased the conversion of LC3-I to LC3-II in a dose dependent manner
same,compound-mediated cell death on blocking of autophagy by wortmannin,HeLa cells,significantly inhibited
same,percentage of cell death,HeLa cells,markedly increased the percentage of cell death
COc1cc2c(cc1OC)C(Cc1ccc(Oc3cc(CC4c5cc(OC)c(OC)cc5CCN4C)ccc3OC(=O)c3ccco3)cc1)N(C)CC2 (centres unmarked) [Compound 3b],conversion of LC3-I to LC3-II (fold change relative to DMSO control),[1],increased the conversion of LC3-I to LC3-II in a dose dependent manner
COc1cc2c(cc1OC)C(Cc1ccc(Oc3cc(CC4c5cc(OC)c(OC)cc5CCN4C)ccc3OS(=O)(=O)c3ccc(C)cc3)cc1)N(C)CC2 (centres unmarked) [Compound 4a],IC50,HeLa cancer cells; [3],6.1 µM
same,conversion of LC3-I to LC3-II (fold change relative to DMSO control),[1],increased the conversion of LC3-I to LC3-II in a dose dependent manner
same,compound-mediated cell death on blocking of autophagy by wortmannin,HeLa cells,significantly inhibited
same,percentage of cell death,HeLa cells,markedly increased the percentage of cell death
COc1cc2c(cc1OC)C(Cc1ccc(Oc3cc(CC4c5cc(OC)c(OC)cc5CCN4C)ccc3OS(C)(=O)=O)cc1)N(C)CC2 (centres unmarked) [Compound 4b],conversion of LC3-I to LC3-II (fold change relative to DMSO control),[1],increased the conversion of LC3-I to LC3-II in a dose dependent manner
"COc1cc2c(cc1OC)[C@@H](Cc1ccc(Oc3cc(C[C@H]4NCCc5cc(OC)c(OC)cc54)ccc3O)cc1)N(C)CC2 [N-desmethyldauricine, reference compound]",IC50,HeLa cancer cells,15.8 µM
same,formation of GFP-LC3 puncta (fluorescence images),[2],increased formation of GFP-LC3 puncta
same,percentage of cells with GFP-LC3 puncta (dose dependence),[2],induced autophagic puncta in HeLa cells in a dose-dependent manner
same,conversion of LC3-I to LC3-II (fold change relative to DMSO control),[1],increased the conversion of LC3-I to LC3-II in a dose-dependent manner
"COc1cc2c(cc1OC)[C@@H](Cc1ccc(Oc3cc(C[C@@H]4c5cc(OC)c(OC)cc5CCN4C)ccc3O)cc1)N(C)CC2 [dauricine, reference compound]",IC50,"HeLa cancer cells; Homo sapiens, HeLa, 72 h, read-out: IC50 (cytotoxicity)",15.5 µM
same,formation of GFP-LC3 puncta (fluorescence images),[2],increased formation of GFP-LC3 puncta
same,percentage of cells with GFP-LC3 puncta (dose dependence),[2],induced autophagic puncta in HeLa cells in a dose-dependent manner
same,conversion of LC3-I to LC3-II (fold change relative to DMSO control),[1],increased the conversion of LC3-I to LC3-II in a dose-dependent manner
"COC[C@H]1OC(=O)c2coc3c2[C@@]1(C)C1=C(C3=O)[C@@H]2CCC(=O)[C@@]2(C)C[C@H]1OC(C)=O [wortmannin, reference compound]",cytotoxic effect of wortmannin alone,HeLa cells; wortmannin alone (1 μM),no cytotoxic effect
